The target of one series is JAK1 (Homo sapiens (Human), UniProt P23458). Put plainly: Z′-Lyte kinase inhibitory activity test. Format: biochemical. The conditions noted are these: ATP concentration Km. The procedure, abridged:
(§1)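 FRET-based Z′-Lyte assay in 50 mM HEPES pH 7.5, 0.01% Brij-35, 10 mM MgCl2, 1 mM EGTA with 2 μM peptide substrate, titrated kinase and ATP; 10-point 3-fold dilutions from 10 μM final, 1.5 h kinase reaction at 30 °C, then 1 h development. Inhibition from substrate phosphorylation ratio.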

The next series addresses JAK2 (Homo sapiens (Human), UniProt O60674). Put plainly: Z′-Lyte kinase inhibitory activity test. To be noted: ATP concentration Km. Format: biochemical. The procedure, abridged: as §1
Another series concerns the target JAK3 (Homo sapiens (Human), UniProt P52333). Put plainly: Z′-Lyte kinase inhibitory activity test. Format: biochemical. The procedure, abridged:
as §1

In the next series the target is TYK2 (Homo sapiens (Human), UniProt P29597). Put plainly: Z′-Lyte kinase inhibitory activity test. Format: biochemical. To be noted: ATP concentration Km. Summed up:
as §1

The nature of series [1]: Rat liver microsomes stability test. Format: in vitro ADME. The conditions noted are these: for Remaining percentage: rat liver microsomes, average value; for CLint scaled at 1 µM / half-life at 1 µM: rat, liver microsomes, pH 7.4, rat liver microsomes. As to the method:
Firstly, preheated 0.1 M potassium phosphate buffer with 5 mM MgCl2 (i.e. K/Mg buffer) at pH 7.4±0.1. Prepared the spiked solution for the tested compound and reference compound (500 μM spiked solution: added 5 μL of 10 mM stock solution into 95 μL of acetonitrile; 1.5 μM microsomal spiked solution (0.75 mg/mL): added 1.5 μL of 500 μM spiked solution and 18.75 μL of 20 mg/mL liver microsomes into 479.75 μL of K/Mg buffer). Then NADPH was dissolved in buffer K to prepare a 6 mM, 5 mg/mL NADPH stock solution. At different time points (0-, 5-, 15-, 30-, 45 minutes), 30 μL of 1.5 μM spiked solution containing 0.75 mg/mL of microsome solution was distributed onto the designated detection plate. At 0 min, 150 μL of acetonitrile containing internal standard (IS) was added to the 0 min plate well, followed by 15 μL of NADPH stock solution (6 mM). Then, all plates were pre-incubated at 37° C. for 5 minutes, added 15 μL of NADPH stock solution (6 mM), the reaction was initiated and timed. At 5 minutes, 15 minutes, 30 minutes, and 45 minutes, added 150 μL of acetonitrile solution containing IS to the corresponding wells to stop the reaction. After quenching, the plate was shaken for 10 minutes (600 rpm/min), followed by centrifugation at 6000 rpm/min for 15 minutes. 80 μL of supernatant of each well were transferred into a 96-well sample plate containing 140 μL of ultrapure water to perform LC/MS analysis. The analysis of biological samples and all samples were completed by the analysis laboratory of Medicipia Pharmaceutical Technology (Shanghai) Co., Ltd.

Series [2] concerns phosphorylation of JAK3 and STAT5 in U937 cells. Put plainly: Wash out experiment in U937 cells. The conditions noted are these: 200 nM 10 hours then removed. Format: cell-based, human. The procedure:
Cell line: human acute myeloid leukemia cell line U937
After 200 nM test compound LS6-45 was co-incubated with U937 cells for 10 hours, the supernatant was discarded by centrifugation. The cells were collected and washed with PBS to remove residual compounds. After adding fresh culture medium, the cells continued to be cultured in a 37° C. incubator. Cells were collected at 0, 0.5, 1, 2, 4, 8, 12, and 16 hours, and protein was extracted for Western blot analysis.

Another series deals with U937 cells. Put plainly: In vivo anti-tumor activity, U937 subcutaneous tumor in mice. As to the method:
Animal model: 4-6 weeks old Male CB-17 SCID mice
U937 cells were cultured in vitro (1640+10% FBS+1% dual antibody) and amplified to 50 plates (10 cm). The cells were collected into a 50 mL centrifuge tube, centrifuged at 800 rpm for 5 minutes. The supernatant was discarded, and the cells was enriched into a 50 mL sterile centrifuge tube, washed once with PBS, and centrifuged at 800 rpm for 5 minutes. The cells were suspended with an appropriate amount of sterile PBS, counted and diluted to 2×10^7 cells/mL; 0.2 mL cells per animal were inoculated subcutaneously in the right anterior axilla of the animal (preferably inoculated before the animal is 20 g).
5-7 days after inoculation (Since U937 tumor grows fast, observe once every 3 days), when the tumor grew to 100-200 mm^3, the mice were grouped and administered the drugs, and excluded the animals with too large or too small tumors. The mice were randomly divided into a medication group and a solvent group, with 6 mice in each group. The initial tumor volume and body weight were recorded on the day of grouping.
The administration cycle was 10 days, and daily administration was applied. The body weight and tumor volume of animals were measured once every 2 days. The formula for calculating tumor volume is: V=π/6*a*b*b (wherein a and b are the length and width of the tumor, respectively). The next day after the end of administration, the animal was weighed and the tumor volume was measured; and then the animal was sacrificed and the tumor was dissected to weighed. The tumor body was fixed with neutral formalin for pathological observation. Animal blood samples were collected for routine blood analysis according to experimental needs, and the main organs of the animals were collected for pathological analysis. At the end of the study, all animals were euthanized and the tumors, livers, kidneys, and lungs of […] were collected for further analysis.

SMILES strings stand for the structures. Where two headings read alike, the source gives them in different places.

JAK3, sequence (P52333 whole entry): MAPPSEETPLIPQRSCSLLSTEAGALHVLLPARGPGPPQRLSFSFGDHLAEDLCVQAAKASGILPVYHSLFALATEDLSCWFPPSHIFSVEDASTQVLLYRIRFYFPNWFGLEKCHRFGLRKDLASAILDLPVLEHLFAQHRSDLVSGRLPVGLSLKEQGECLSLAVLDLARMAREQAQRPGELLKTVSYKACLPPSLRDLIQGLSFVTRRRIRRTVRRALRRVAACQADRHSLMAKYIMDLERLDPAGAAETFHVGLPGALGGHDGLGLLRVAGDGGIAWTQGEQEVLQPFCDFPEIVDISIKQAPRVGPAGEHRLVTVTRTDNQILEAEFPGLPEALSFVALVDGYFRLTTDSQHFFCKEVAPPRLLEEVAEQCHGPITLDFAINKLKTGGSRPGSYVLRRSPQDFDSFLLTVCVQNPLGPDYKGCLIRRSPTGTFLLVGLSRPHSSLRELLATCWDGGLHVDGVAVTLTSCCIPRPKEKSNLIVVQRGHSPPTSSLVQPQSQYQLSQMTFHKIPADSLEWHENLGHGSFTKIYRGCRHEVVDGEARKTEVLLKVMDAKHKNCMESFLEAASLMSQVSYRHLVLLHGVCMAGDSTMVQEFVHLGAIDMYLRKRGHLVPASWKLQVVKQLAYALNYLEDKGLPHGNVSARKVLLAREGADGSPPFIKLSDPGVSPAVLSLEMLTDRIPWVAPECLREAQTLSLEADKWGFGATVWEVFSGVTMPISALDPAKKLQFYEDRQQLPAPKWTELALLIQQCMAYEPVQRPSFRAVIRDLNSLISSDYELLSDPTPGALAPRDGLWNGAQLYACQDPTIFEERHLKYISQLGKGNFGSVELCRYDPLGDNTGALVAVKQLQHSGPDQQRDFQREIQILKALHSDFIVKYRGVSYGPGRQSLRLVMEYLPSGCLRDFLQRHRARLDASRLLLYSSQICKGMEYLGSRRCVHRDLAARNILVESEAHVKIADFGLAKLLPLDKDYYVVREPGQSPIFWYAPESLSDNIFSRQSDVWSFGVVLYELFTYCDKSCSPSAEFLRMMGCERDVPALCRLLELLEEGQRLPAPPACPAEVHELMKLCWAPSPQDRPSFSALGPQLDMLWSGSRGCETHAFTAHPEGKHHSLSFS
JAK1, sequence (P23458 whole entry): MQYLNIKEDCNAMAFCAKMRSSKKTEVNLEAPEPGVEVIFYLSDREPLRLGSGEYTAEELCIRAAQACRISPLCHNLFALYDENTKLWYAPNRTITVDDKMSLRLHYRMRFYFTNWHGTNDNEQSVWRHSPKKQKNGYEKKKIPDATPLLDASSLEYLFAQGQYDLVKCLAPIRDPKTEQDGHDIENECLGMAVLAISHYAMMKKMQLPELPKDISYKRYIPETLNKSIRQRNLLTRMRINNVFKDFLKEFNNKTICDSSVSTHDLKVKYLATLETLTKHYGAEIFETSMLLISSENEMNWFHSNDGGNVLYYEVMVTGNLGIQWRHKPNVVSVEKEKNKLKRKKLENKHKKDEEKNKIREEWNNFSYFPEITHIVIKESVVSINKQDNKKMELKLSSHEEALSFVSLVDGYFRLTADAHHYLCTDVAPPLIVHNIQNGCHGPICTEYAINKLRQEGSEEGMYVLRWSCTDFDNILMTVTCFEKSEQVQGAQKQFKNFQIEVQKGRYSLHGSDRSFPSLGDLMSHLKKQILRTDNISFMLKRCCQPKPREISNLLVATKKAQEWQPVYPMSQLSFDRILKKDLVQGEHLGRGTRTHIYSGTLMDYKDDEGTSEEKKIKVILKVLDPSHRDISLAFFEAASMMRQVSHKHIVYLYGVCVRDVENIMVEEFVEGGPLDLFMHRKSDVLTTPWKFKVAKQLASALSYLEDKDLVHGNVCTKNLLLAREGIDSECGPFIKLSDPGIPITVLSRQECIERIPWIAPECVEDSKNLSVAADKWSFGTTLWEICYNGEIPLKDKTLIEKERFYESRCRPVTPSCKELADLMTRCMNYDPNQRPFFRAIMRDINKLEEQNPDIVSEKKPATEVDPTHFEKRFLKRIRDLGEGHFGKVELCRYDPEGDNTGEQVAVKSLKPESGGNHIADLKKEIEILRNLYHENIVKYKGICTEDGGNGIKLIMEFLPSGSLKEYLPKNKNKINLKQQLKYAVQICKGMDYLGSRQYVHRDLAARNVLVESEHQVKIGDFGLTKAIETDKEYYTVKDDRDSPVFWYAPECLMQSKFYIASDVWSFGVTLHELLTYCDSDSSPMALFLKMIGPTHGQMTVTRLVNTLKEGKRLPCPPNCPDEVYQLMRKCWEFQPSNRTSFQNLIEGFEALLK
TYK2, sequence (P29597 whole entry): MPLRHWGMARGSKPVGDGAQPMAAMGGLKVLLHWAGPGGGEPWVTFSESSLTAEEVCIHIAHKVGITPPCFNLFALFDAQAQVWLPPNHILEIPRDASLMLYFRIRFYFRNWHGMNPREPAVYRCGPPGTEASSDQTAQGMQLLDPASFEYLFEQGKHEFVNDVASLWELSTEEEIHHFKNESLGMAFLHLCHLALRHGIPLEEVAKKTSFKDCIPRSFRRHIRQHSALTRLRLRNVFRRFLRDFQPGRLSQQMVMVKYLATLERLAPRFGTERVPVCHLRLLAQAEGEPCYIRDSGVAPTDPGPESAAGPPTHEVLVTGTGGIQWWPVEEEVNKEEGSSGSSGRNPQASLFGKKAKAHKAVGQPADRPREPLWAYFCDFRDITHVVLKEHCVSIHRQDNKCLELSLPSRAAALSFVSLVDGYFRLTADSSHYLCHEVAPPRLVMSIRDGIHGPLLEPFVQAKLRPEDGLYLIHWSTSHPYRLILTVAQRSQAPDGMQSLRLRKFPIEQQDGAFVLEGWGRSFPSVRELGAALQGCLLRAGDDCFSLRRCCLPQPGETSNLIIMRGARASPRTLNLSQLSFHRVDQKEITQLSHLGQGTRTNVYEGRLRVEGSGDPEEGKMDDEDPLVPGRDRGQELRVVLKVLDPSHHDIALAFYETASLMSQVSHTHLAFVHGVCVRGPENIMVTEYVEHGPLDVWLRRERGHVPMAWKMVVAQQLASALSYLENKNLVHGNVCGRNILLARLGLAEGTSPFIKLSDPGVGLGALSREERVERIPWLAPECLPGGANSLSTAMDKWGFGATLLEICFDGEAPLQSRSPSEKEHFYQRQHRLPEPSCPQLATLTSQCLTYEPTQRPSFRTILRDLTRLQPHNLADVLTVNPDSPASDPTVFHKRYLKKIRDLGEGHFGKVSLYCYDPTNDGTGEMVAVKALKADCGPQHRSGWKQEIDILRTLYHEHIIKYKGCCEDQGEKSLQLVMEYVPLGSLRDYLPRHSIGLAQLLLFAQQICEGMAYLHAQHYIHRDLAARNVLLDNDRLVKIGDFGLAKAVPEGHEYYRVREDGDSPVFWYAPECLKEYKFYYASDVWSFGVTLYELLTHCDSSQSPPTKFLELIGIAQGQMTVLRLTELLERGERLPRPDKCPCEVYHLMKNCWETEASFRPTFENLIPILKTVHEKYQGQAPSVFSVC
JAK2, sequence (O60674 whole entry): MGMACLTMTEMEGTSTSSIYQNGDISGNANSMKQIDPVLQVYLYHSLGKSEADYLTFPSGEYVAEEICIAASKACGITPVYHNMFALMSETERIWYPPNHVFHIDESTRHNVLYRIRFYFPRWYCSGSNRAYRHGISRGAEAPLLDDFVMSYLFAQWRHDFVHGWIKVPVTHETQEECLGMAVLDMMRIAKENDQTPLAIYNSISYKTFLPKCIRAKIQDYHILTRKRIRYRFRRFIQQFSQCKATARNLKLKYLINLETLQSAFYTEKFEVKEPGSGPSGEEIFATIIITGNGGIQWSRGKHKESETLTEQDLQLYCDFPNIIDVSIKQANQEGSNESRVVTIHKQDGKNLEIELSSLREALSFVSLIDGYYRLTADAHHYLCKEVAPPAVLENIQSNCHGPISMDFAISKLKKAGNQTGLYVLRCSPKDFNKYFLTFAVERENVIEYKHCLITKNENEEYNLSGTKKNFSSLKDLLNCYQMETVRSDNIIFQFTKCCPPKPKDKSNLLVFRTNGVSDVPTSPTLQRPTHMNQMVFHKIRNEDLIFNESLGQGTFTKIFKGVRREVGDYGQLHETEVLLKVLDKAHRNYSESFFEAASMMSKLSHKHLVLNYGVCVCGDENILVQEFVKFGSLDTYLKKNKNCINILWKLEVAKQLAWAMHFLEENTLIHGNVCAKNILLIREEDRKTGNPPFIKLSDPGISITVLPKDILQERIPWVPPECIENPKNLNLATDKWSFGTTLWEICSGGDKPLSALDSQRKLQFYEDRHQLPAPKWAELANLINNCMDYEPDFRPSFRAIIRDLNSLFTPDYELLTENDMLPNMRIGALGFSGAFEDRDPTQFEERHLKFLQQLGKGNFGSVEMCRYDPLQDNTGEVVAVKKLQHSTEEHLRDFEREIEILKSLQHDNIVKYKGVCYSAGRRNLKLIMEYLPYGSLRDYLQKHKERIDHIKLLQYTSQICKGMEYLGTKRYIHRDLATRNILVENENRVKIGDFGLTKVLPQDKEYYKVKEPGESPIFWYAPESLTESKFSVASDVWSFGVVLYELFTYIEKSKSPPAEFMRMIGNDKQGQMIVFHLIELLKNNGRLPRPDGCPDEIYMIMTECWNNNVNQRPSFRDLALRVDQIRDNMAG

`C=CC(=O)Nc1cc(Nc2ncc(Cl)c(O[C@@H]3CO[C@H]4[C@@H]3OC[C@H]4OC)n2)ccc1N(C)CCN(C)C` [LS 6-45]: the 50% inhibitory concentration (IC50) – broadly, the concentration at which inhibition is half-maximal – against JAK1 was 13000 nM; against JAK2, 2040 nM; on JAK3 (ATP concentration 1 mM) it was 1.53 nM; at JAK3 (ATP concentration Km), 1.25 nM; against TYK2, 1080 nM. In addition, the Remaining percentage was 100.00% in series [1] (0 min); 95.76% in series [1] (5 min); 90.38% in series [1] (15 min); 87.93% in series [1] (30 min); 79.61% in series [1] (45 min). The CLint scaled at 1 µM in series [1] (calculated value below the 20.70 limit, read-out: Clint (value in parentheses)) was 16.6 mL/min/kg; in series [1] (read-out: Clint) it was under 20.7 mL/min/kg. In addition, the half-life at 1 µM is 2.5 h in series [1] (calculated value beyond the 120 min limit, read-out: T1/2 (value in parentheses)) and over 2 h in series [1] (read-out: T1/2). Further, the “phosphorylation levels of JAK3 and STAT5 after wash out” value is given as “slowly recovered” in series [2] (between 8-12 hours) and “continuously inhibited” in series [2] (within 8 hours). Further, the “toxic side effects and body weight” value in the series with U937 cells (CB-17 SCID mice, during the administration period) was “no toxic side effects and no signs of weight loss”. Further, in the series on U937 cells (U937 tumor in CB-17 SCID mice, 50 mg/kg dose group, oral bid), the tumor growth entry was “completely stagnant or even regressed”. Besides, the “growth rate of tumors” value with U937 cells (U937 tumor in CB-17 SCID mice, during 10 days administration, versus control group) is “significantly lower than that of the control group”. Further, the “phosphorylation of JAK3, STAT3, STAT5 and cell cycle related proteins in tumor tissues (Western blot)” value in the series with U937 cells (tumor tissues of experimental mice, compared with control group) is listed as “significant inhibitory effects”.

The record behind these values is US20230348487A1, “2-AMINOPYRIMIDINE COMPOUND AND PHARMACEUTICAL COMPOSITION THEREOF AND APPLICATION THEREOF” (GUANGZHOU SALUSTIER BIOSCIENCES CO., LTD., priority 2021, published 2023).
